Results from article PMC8587999, “Assessment of the Activity of Decoquinate and Its Quinoline-O-Carbamate Derivatives against Toxoplasma gondii In Vitro and in Pregnant Mice Infected with T. gondii Oocysts” (Molecules, 2021).
Converted amounts (≈) assume the structure as drawn. “And” between values parts separate entries of the source, which are not always exact repeats. Equal entries are not always repeated.

Assays:
[1] = parameters: method as in PMID 19614848; details: milking cows, formulated DCQ 0.5 mg/kg; cited from earlier work
[2] = parameters: method as in https://www.drugs.com/pro/deccox.html; details: rats; ref https://www.drugs.com/pro/deccox.html; cited from earlier work
Sarcocystis neurona = test system: Sarcocystis neurona; parameters: method as in PMID 23523012; details: cited from earlier work
[3] = parameters: method as in PMID 32626086; details: cited from earlier work
[4] = test system: T. gondii TgShSp1 oocysts; test: DCQ efficacy assessment in pregnant CD1 mice orally infected with TgShSp1 oocysts; assay type: in vivo
Method: Twenty-nine female and 15 male CD1 mice, all 8 weeks of age, were used. Oestrus-synchronization and mating was carried out as described under Section 4.6. Subsequently, females were distributed randomly to 3 experimental groups: DCQ, DCQ + infection (n = 12); C+, corn oil + infection (n = 12); C-, only corn oil (n = 5). Infection was performed with 100 TgShSp1 oocysts at day 7 post-mating by oral gavage; the C− group received PBS. The treatment with DCQ suspended in corn oil at 10 mg/kg/day for 5 days; that only with corn oil was initiated at 2 days post-infection. At day 18 post-mating, pregnant mice were distributed into single cages and non-pregnant mice were housed together with 3–4 animals per cage. Dams gave birth between day 20–22, and clinical status, litter size, neonatal and postnatal mortality were recorded daily. Four weeks post-partum (p.p.), all mice were euthanized in a chamber by isoflurane/CO2 inhalation. Blood and brain samples were collected. Total IgG was measured in T. gondii infected mice by ELISA [49].
(§1) Quantification of the cerebral parasite load in non-pregnant mice, dams and pups was carried out with an established real-time PCR method for the detection of T. gondii. The NucleoSpin DNA RapidLyze Kit (Macherey-Nagel, Oensingen, Switzerland) was used for DNA purification according to the standard protocol and DNA concentrations were quantified by the QuantiFluor double-stranded DNA (dsDNA) system (Promega, Madison, WI, USA). Quantitative real-time PCR was performed with the Light Cycler (Roche, Basel, Switzerland), and the parasite load was calculated by including a standard curve of DNA samples from 1000, 100, and 10 T. gondii tachyzoites per run.
(§2) Graph creation and statistical analysis was performed in GraphPad Prism version 5.0 (GraphPad Software, La Jolla, CA, USA). Cerebral parasite burdens were compared between groups by the non-parametric Kruskal–Wallis test, followed by Mann–Whitney U test. Pup mortality over time was depicted by plotting survival events at each time point in Kaplan–Meier graphs and survival curves were compared by the Log-rank (Mantel–Cox) test.

[5] = test system: T. gondii TgShSp1 oocysts; test: RMB060 efficacy assessment in pregnant CD1 mice orally infected with TgShSp1 oocysts; assay type: in vivo
Method: Eight-week-old CD1 mice, 29 females and 15 males, were used. After oestrus-synchronization and mating, females were randomly distributed to 3 experimental groups: RMB060, RMB060 + infection (n = 12); C+, corn oil + infection (n = 12); C−, only corn oil (n = 5). Infection was carried out at day 7 post-mating with 100 TgShSp1 oocysts suspended in 100 µL PBS, with the C−group receiving only PBS. Treatments, separation of pregnant and non-pregnant mice, and monitoring were performed as described in Section 4.7. All mice were euthanized 4 weeks p.p. by isoflurane/CO2. Blood and brain samples were collected. Total IgG was measured in T. gondii infected mice by ELISA to see whether drug treatment would have an impact on the humoral immune response.
as §1, §2

[6] = CD1 mice, TgShSp1 oocysts, 10 mg/kg/day oral for 5 days, positive/total adult mice
[7] = brain PCR, surviving pups, 10 mg/kg/day oral for 5 days
[8] = brain PCR, 10 mg/kg/day oral for 5 days
[9] = dead pups/pups born, 10 mg/kg/day oral for 5 days, 10 mg/kg/day
[10] = real-time PCR, 4 weeks p.p., non-pregnant mice and dams
[11] = serum at end of experiment, RIPC, non-pregnant mice and dams

CCCCCCCCCCOc1cc2c(O)c(C(=O)OCC)cnc2cc1OCC [DCQ, ethyl 6-decyloxy-7-ethoxy-4-oxo-1H-quinoline-3-carboxylate]
maximum concentration attained in plasma [1]: 2 µM | LD50 [2]: > 5000 mg/kg | Activity against S. neurona schizonts (Sarcocystis neurona; 10 day treatment at 240 nM): parasiticidal activity | IC50 (Sarcocystis neurona; read-out: IC50 values for S. neurona merozoites): 0.6 to 1.1 nM | aqueous solubility [3]: 0.06 µg/mL (≈ 0.144 µM) | Vertical transmission ([4]; 10 mg/kg/day for 5 days): did not prevent vertical transmission | Neonatal pup mortality ([4]; 10 mg/kg/day for 5 days, C+ group 40%): 70% | No. of Pups/No. of Dams ([4]; 10 mg/kg/day oral for 5 days): 92/8 | Seropositive for T. gondii [4, 6]: 11/12 | Brain infection detected in adult mice (dams and non-pregnant mice) ([4]; PCR, 10 mg/kg/day for 5 days): 11 out of 12 | T. gondii Positive Pups [4, 7]: 25/25 | T. gondii Positive Dams [4, 8]: 8/8 | T. gondii Positive Non-Pregnant Mice [4, 8]: 3/4 | Neonatal Mortality [4, 9]: 64 out of 92 and 64/92 | Postnatal Mortality ([4]; dead/remaining pups, 1-month follow-up, 10 mg/kg/day oral for 5 days, 10 mg/kg/day): 3 of the 28 and 3/28 | Cerebral parasite burden compared to the C+ group [4, 10]: No statistically significant differences | T. gondii IgG antibody titers compared to the C+ group [4, 11]: no statistically significant differences

CCCCCCCCCCOc1cc2c(OC(=O)N3CCN(S(C)(=O)=O)C3=O)c(C(=O)OCC)cnc2cc1OCC [RMB060]
Vertical transmission ([5]; 10 mg/kg/day for 5 days): vertical transmission to pups could not be prevented | Postnatal Mortality ([5]; 10 mg/kg/day for 5 days, C+ group 9.2%): 3.8% | Neonatal Mortality ([5]; 10 mg/kg/day for 5 days, C+ group 23%, non-significant): 16.8% | Surviving pups PCR-positive for T. gondii in the brain ([5]; 10 mg/kg/day for 5 days, C+ group 89%): 62% | No. of Pups/No. of Dams ([5]; 10 mg/kg/day oral for 5 days): 125/10 | Seropositive for T. gondii [5, 6]: 8/12 | Survival curves of pups compared to the C+ group ([5]; Kaplan–Meier, Log-rank (Mantel-Cox) test): No statistically significant differences | Brain infection detected in adult mice (dams and non-pregnant mice) ([5]; PCR, 10 mg/kg/day for 5 days): eight out of 12 | T. gondii Positive Pups [5, 7]: 62/100 | T. gondii Positive Dams [5, 8]: 7/10 | T. gondii Positive Non-Pregnant Mice [5, 8]: 1/2 | Neonatal Mortality [5, 9]: 21 out of 125 and 21/125 | Postnatal Mortality ([5]; dead/remaining pups, 10 mg/kg/day oral for 5 days): 4/104 | Cerebral parasite burden compared to the C+ group [5, 10]: No statistically significant differences | T. gondii IgG antibody titers compared to the C+ group [5, 11]: no statistically significant differences
